Laboratory results published in ChEMBL document CHEMBL3585341, “-Heteroarylalkylcarbamates as inhibitors of fatty acid amide hydrolase (FAAH)” (Medchemcomm, 2014).
Active and inactive are the calls of the source. The calls are words filed in the database; no cut-off is given here.

How the values were obtained:
[1] = Metabolic stability in rat liver S9 fractions assessed as remaining compound after 30 mins by reverse phase HPLC with UV-detection method in presence of NADPH; format: ADME, subcellular, Liver S9 fraction; settings: read-out: Stability
[2] = Metabolic stability in porcine plasma assessed as remaining compound at […] after 30 mins by reverse phase HPLC with UV-detection method; format: ADME, cell-free, Sus scrofa; settings: pig, read-out: Stability
[3] = species: Sus scrofa; assay: Inhibition of porcine platelet cPLA2alpha using co-vesicles consisting 1-stearoyl-2-arachidonoyl-sn-glycero-3-phosphocholine and 1,2-dioleoyl-sn-glycerol as substrate assessed as arachidonic acid release at 10 uM after 60 mins by reverse phase HPLC with UV-detection method
[4] = molecular target: T1, Fatty-acid amide hydrolase 1 (Rattus norvegicus, UniProt P97612); assay: (§1) Inhibition of Sprague-Dawley rat brain microsomal FAAH using N-(2-hydroxyethyl)-4-pyren-1-ylbutanamide as substrate assessed as 4-pyren-1-ylbutanoic acid release preincubated for 10 mins with substrate followed by protein addition measured after 60 mins by reverse phase HPLC with fluorescence detection method
T1 sequence (P97612 whole entry): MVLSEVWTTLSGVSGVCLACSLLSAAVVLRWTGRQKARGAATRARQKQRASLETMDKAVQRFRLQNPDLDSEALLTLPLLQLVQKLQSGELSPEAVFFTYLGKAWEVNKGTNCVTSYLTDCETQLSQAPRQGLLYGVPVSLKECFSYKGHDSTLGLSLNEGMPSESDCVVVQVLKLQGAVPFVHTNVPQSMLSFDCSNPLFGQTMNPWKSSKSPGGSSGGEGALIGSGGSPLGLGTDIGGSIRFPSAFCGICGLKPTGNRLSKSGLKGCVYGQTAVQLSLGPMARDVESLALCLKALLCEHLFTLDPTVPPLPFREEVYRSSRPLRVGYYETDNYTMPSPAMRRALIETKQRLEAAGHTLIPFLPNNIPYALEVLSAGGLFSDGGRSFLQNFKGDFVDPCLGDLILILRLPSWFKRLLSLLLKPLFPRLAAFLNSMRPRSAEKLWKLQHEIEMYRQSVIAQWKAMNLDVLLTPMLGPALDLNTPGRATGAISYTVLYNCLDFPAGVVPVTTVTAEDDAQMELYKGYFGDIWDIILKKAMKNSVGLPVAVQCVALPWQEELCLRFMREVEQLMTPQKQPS

[5] = molecular target: T2, Monoglyceride lipase (Homo sapiens) (UniProt Q99685); assay: Inhibition of human recombinant MAGL using […] 4-pyren-1-yl butanoate as substrate at 10 uM preincubated for 15 mins with substrate followed by protein addition measured after 45 mins by reverse phase HPLC with fluorescence detection method
T2 sequence (whole entry): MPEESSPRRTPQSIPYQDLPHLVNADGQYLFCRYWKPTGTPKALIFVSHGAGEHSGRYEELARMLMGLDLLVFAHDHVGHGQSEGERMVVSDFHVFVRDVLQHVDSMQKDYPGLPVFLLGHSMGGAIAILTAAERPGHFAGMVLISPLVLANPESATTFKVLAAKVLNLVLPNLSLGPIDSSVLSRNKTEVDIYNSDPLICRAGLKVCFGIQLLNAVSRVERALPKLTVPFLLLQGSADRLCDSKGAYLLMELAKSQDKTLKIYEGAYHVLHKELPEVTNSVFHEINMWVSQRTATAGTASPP

[6] = molecular target: T3, Fatty-acid amide hydrolase 1 (Rattus norvegicus) (UniProt P97612); assay: as §1, with “release at 10 uM” for “release”
T3 sequence (whole entry): T1 sequence (P97612 whole entry)

SMILES | inhibition [3] | IC50 [4] | further results
NC(=O)c1cccc(-c2cccc(OC(=O)NC3CCCCC3)c2)c1 [URB-597] | inactive | – | remaining at 0.5 h [1]: 13%; remaining at 0.5 h [2]: 76%
Cc1nc(-c2ccccc2)c(-c2ccccc2)n1CCCCCCNC(=O)Oc1ccccc1 | – | 350 nM | –
O=C(NCCCCCCn1cnc2ccccc21)Oc1ccccc1 | – | 290 nM | –
O=C(NCCCCCn1ccc2ccccc21)Oc1ccccc1 | inactive | 94 nM | inhibition [5]: inactive
O=C(NCCCCCCn1ccc2ccccc21)Oc1ccccc1 | inactive | 250 nM | inhibition [5]: inactive
O=C(NCCCCCCn1nnc2ccccc21)Oc1ccccc1 | – | 810 nM | –
Cc1cc(-c2ccccc2)c(-c2ccccc2)n1CCNC(=O)Oc1ccccc1 | – | – | inhibition [6]: inactive
Cc1ccc(-c2ccccc2)n1CCCCCCNC(=O)Oc1ccccc1 | – | 310 nM | –
O=C(NCCCCCCn1c(-c2ccccc2)cc2ccccc21)Oc1ccccc1 | – | 520 nM | –
Cc1cc(-c2ccccc2)c(-c2ccccc2)n1CCCCCCNC(=O)Oc1ccccc1 | – | 2600 nM | –
Cc1c(-c2ccccc2)cc(-c2ccccc2)n1CCCCCCNC(=O)Oc1ccccc1 | – | 460 nM | –
Cc1cc(-c2ccccc2)c(-c2ccccc2)n1CCCCNC(=O)Oc1ccccc1 | – | 6200 nM | –
O=C(NCCCCCn1ccc2ccccc21)Oc1cccnc1 | inactive | 3.6 nM | remaining at 0.5 h [1]: 43%; remaining at 0.5 h [2]: 0%
O=C(NCCCCCCCn1ccc2ccccc21)Oc1ccccc1 | inactive | 90 nM | inhibition [5]: inactive
COC(=O)c1c(-c2ccccc2)c(-c2ccccc2)n(CCCCCCNC(=O)Oc2ccccc2)c1C | – | > 10000 nM | inhibition [6]: 21%
O=C(NCCCCCCn1c(-c2ccccc2)c(-c2ccccc2)c2ccccc21)Oc1ccccc1 | – | 4700 nM | –
Cc1c(C#N)c(-c2ccccc2)c(-c2ccccc2)n1CCCCCCNC(=O)Oc1ccccc1 | – | 8700 nM | –
O=C(NCCCCCCn1ccc2ccccc21)Oc1cccnc1 | inactive | 5.2 nM | remaining at 0.5 h [1]: 47%; remaining at 0.5 h [2]: 0%
O=C(NCCCCCCn1cc(-c2ccccc2)c2ccccc21)Oc1ccccc1 | – | 4900 nM | –
CC(=O)c1c(-c2ccccc2)c(-c2ccccc2)n(CCCCCCNC(=O)Oc2ccccc2)c1C | – | > 10000 nM | inhibition [6]: 33%
O=C(NCCCCCCn1ncc2ccccc21)Oc1ccccc1 | – | 920 nM | –
O=C(NCCCCn1ccc2ccccc21)Oc1ccccc1 | inactive | 960 nM | inhibition [5]: inactive
O=C(NCCCCCCCCn1ccc2ccccc21)Oc1ccccc1 | inactive | 240 nM | inhibition [5]: inactive
